Experimental data published in patent publication US20140088144A1, “INHIBITING MICROBIAL INFECTIONS” (THE UNIVERSITY OF KANSAS, priority 2012, published 2014).

Columns and labels:
virB = assay: Shigella gene expression qRT-PCR, virB; assay type: cell-based, S. flexneri; settings: for Average ΔΔCt / Ct / RQ (2^−ΔΔCt) / ΔΔCt^1 (normalized to gapA) / ΔΔCt^2 (normalized to rrsA): virB, example data
Method: Real-time quantitative reverse transcription PCR (qRT-PCR) was performed to test the effects of SE-1 on the expression of the VirF regulated genes virB, icsA, icsB and ipaB. The gapA and rrsA transcripts were used as internal controls. These are constitutively expressed Shigella genes commonly used to normalize mRNA levels. S. flexneri strain SME4331, which carries a null mutation in ipgD (ipgD), was grown at 30° C. overnight in TSB with ampicillin, diluted into the same medium to an OD600 of ˜0.1, and 1 ml aliquots further grown at 30° C. (DMSO only) or at 37° C. (SE-1 at 20 or 40 μM, or DMSO only, all 0.3% DMSO). Cells were grown to an OD600 of 1.0 (˜2.5 h) and RNA was isolated using an RNeasy MiniElute Cleanup Kit (Qiagen, Germantown, Md.), with DNA contamination eliminated using a Turbo DNase Kit (Ambion, Austin, Tex.). Complementary DNA (cDNA) was synthesized by random priming using a cDNA Reverse Transcription Kit (Applied Biosystems, Foster City, Calif.). Primers were tested for PCR specificity using genomic DNA template to ensure a single amplicon of the expected size for each primer pair, and validated using 5-fold dilutions of cDNA (2000 to 0.0256 ng) to ensure a linear plot of cycle threshold (Ct) versus cDNA concentration. Validated primer sets were used to test mRNA profiles in reactions that contained 10 ng of cDNA, 10 μl of SYBR green master mix (Applied Biosystems), specific primers (0.5 μM each) and water to a final volume of 20 μl, using a Step One Plus Real-Time PCR System (Applied Biosystems). The data was analyzed using the 2^−ΔΔCt method, and also by Applied Biosystems real-time analysis software. […] In brief, ΔΔCt values [ΔΔCt=(Ct,Target−Ct,Internal Control)SE-1−(Ct,Target−Ct,Internal Control)no SE-1] were separately obtained for each sample relative to two internal controls, gapA and rrsA. The ΔΔCt values relative to the two internal controls for each sample were averaged and then used to calculate the relative expression levels (2^−ΔΔCt). As a control, we also normalized each internal control to the other internal control. Control reactions used templates generated without reverse transcriptase to ensure low genomic DNA contamination. To ensure that products were not likely to be due to primer dimer artifacts, additional control samples were performed in which reaction mixtures contained primers alone (no template).

[1] = system: human epithelial cells (HeLa); assay: Alamar Blue [resazurin] metabolic activity of tissue culture cells used in invasion assays; assay type: cell-based
Text: We expect that Compound 1 can impact host cell interaction but have little or no effect on growth rate of Shigella, based on our results with non-pathogenic E. coli strains.

CCCCN1C=C(c2ccc3ccccc3n2)C(C[N+](=O)[O-])c2ccccc21 (stereo not drawn) [Compound 1, 1-butyl-4-(nitromethyl)-3-quinolin-2-yl-4H-quinoline]
maximal inhibition of virB expression (virB; 40 μM SE-1, P<0.05): more than two fold | Average ΔΔCt (virB; SE-1 20 μM): 1.13 | Ct (virB; SE-1 20 μM): 23.26 | RQ (2^−ΔΔCt) (virB; SE-1 20 μM): 0.46 | ΔΔCt^1 (normalized to gapA) (virB; SE-1 20 μM): 0.63 | ΔΔCt^2 (normalized to rrsA) (virB; SE-1 20 μM): 1.63 | Average ΔΔCt (virB; SE-1 40 μM): 1.47 | Ct (virB; SE-1 40 μM): 23.18 | RQ (2^−ΔΔCt) (virB; SE-1 40 μM): 0.36 | ΔΔCt^1 (normalized to gapA) (virB; SE-1 40 μM): 1.12 | ΔΔCt^2 (normalized to rrsA) (virB; SE-1 40 μM): 1.81 | metabolic activity of the tissue culture cells [1]: did not have any effect
